The text below walks through data of PMC10766610, “DCAF1-based PROTACs with activity against clinically validated targets overcoming intrinsic- and acquired-degrader resistance” (Nature Communications, 2024).

Assay [1] addresses T1, LYN (Homo sapiens, UniProt P07948).
T1 construct: host or cells: HEK293T
In words: Immunoblot of LYN in HEK293T cells. The format is cell-based. Particulars: 6 h. As for the experimental part:
Whole cell lysates for immunoblotting were prepared by pelleting cells at 4 °C (300 g) for 3 min. Cell pellets were then washed 1x with PBS and resuspended in RIPA lysis buffer (VWR, cat # 97063-270) supplemented with protease (Thermo Scientific, cat # A32955) and phosphatase (Thermo Scientific, cat # A32957) inhibitor tablets. Lysates were clarified at 16,000 × g for 15 min at 4 °C prior to quantification by Lowry assay (Bio-Rad cat # 5000113 and cat # 5000114). Whole-cell lysates were loaded into 4–20% Criterion TGX Precast 18 well gels (Bio-Rad, cat # 5671094) and separated by electrophoreses at 120 V for 1 h. The gels were transferred to a nitrocellulose membrane using the Trans-Blot Turbo (Bio-Rad) for 7 min and then blocked for 1 h at room temperature in Odyssey blocking buffer (LICOR Biosciences, cat # 927-50000). Membranes were probed with the appropriate primary antibodies (diluted 1:1000) overnight at 4 °C in 20% Odyssey blocking buffer in 1x TBST. Membranes were washed three times with 1x TBST (5 min per wash), and then incubated with IRDye goat anti-mouse (LICOR, cat # 926-32210) or goat anti-rabbit (LICOR, cat # 926-32211) secondary antibody diluted 1:10,000 in 20% Odyssey blocking buffer for 1 h at room temperature. After three 5-min washes with 1x TBST, the immunoblots were visualized using the ODYSSEY Infrared Imaging System (LICOR). […]
On the technique in general: In western blotting, separated proteins are transferred to a membrane and probed.

For assay [2], the system named is HEK293T cells. In words: Whole proteomics profile, DDa-1 vs (13), HEK293T cells. Particulars: 5 µM DDa-1 vs 5 µM (13), 6 h. The assay is classed as cell-based, human. The protocol:
(§1) HEK293T and TMD8 cells were cultured according to protocol and 3 million cells were plated per sample and recovered for 24 h. The following day, cells were treated with indicated compounds at corresponding concentrations for 6 h. Cells were then harvested and washed 2× with PBS before removing all liquid and snap freezing in liquid nitrogen before sample preparation for proteomics.
(§2) TMT-labeled peptides were generated with the iST-NHS kit (PreOmics) and TMT10plex (duplicates per condition) or TMT18plex (triplicates per condition) reagent (Thermo Fisher Scientific). Equal amounts of labeled peptides were pooled and separated on a high pH fractionation system with a water-acetonitrile gradient containing 10 mM ammonium formate, pH 11[88]. Alternating rows of the resulting 72 fractions were pooled into 24 samples, dried and resuspended in water containing 0.1% formic acid.
(§3) The LC-MS analysis was carried out on an EASY-nLC 1200 system coupled to an Orbitrap Fusion Lumos Tribrid mass spectrometer (Thermo Fisher Scientific). […]
(§4) LC-MS raw files were analyzed with Proteome Discoverer 2.4 (Thermo Fisher Scientific). […] TMT reporter ions of the MS3 spectra were integrated with a 20 ppm tolerance and the reporter ion intensities were used for quantification. […] Protein relative quantification was performed using an in-house developed R (v.3.6) script. […]

The subject of assay [3] is TMD8 WT and TMD8 CRBN resist. cells. In words: CellTiter-Glo viability, TMD8 WT vs CRBN resist. cells. The assay is classed as cell-based, human. The note with it: CellTiter-Glo proliferation. As for the experimental part:
TMD8 cells were grown in the presence of a CRBN-BTK PROTAC CBt using a gradual dose increase. Start treatment was 0.1 nM for 6 weeks, followed by 3 weeks at 0.4 nM and another 4 weeks at 10 nM to finally obtain CBt resistant TMD8 cells (TMD8 CRBN resist.).
d) Viability measured by cell titer-Glo for DBt-10 (green) vs (13) (purple) in WT (solid) vs CRBN resist.
(dotted) TMD8 cells. Data represents average ± standard deviation from n=3 replicates.
e) Repeat of the viability measured by cell titer-Glo for DBt-10 (green) vs (13) (purple) in WT (solid) vs
CRBN resist. (dotted) TMD8 cells with adjusted dose response range. Data represents average ±
standard deviation from n=3 replicates.
Source data are provided as a Source Data file

Assay [4] concerns TMD8 cells. In words: Whole proteomics profile, DBt-10 vs (19), TMD8 cells. The note with it: 5 µM DBt-10 vs 5 µM (19), 6 h. The assay is classed as cell-based, human. The protocol: as §1, §2, §3, §4
The target of assay [5] is DCAF1(WDR) + BRD9-BD(130-250) (Homo sapiens, UniProt Q9H8M2+Q9Y4B6, E1398S). In words: SPR ternary binding assay, immobilized DCAF1(WDR), BRD9-BD(130-250) in buffer.
Sequence of DCAF1(WDR) + BRD9-BD(130-250) (Q9Y4B6 1073-1399 E1398S): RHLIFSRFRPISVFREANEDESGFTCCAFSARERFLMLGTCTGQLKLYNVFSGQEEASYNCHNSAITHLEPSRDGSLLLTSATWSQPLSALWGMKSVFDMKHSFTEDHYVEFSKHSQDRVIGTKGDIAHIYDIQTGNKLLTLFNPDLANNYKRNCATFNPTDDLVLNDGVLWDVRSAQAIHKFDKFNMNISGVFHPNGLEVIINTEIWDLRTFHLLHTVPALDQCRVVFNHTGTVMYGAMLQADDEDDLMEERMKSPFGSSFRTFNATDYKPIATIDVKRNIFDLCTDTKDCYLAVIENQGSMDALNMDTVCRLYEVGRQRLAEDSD
Sequence of DCAF1(WDR) + BRD9-BD(130-250) (Q9H8M2 130-250): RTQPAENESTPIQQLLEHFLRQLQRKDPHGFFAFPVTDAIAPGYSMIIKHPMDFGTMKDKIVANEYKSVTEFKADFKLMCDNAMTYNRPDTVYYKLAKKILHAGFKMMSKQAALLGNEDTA
Method: Surface plasmon resonance (SPR) experiments were performed on Biacore T200 and 8 K+ instruments (Cytiva). […] Binary complexes were analyzed with a kinetic 1:1 fit model to obtain KD values. The fit of apparent steady state RU intensities of the ternary complexes was performed using a bell-shaped curve algorithm implemented in Graphpad Prism. […] Residence times (t1/2) were calculated by the inversion of the off-rate.

“Also recorded” adds a separate entry of the source. Where two headings read alike, the source gives them in different places.

T1 sequence (P07948 whole entry): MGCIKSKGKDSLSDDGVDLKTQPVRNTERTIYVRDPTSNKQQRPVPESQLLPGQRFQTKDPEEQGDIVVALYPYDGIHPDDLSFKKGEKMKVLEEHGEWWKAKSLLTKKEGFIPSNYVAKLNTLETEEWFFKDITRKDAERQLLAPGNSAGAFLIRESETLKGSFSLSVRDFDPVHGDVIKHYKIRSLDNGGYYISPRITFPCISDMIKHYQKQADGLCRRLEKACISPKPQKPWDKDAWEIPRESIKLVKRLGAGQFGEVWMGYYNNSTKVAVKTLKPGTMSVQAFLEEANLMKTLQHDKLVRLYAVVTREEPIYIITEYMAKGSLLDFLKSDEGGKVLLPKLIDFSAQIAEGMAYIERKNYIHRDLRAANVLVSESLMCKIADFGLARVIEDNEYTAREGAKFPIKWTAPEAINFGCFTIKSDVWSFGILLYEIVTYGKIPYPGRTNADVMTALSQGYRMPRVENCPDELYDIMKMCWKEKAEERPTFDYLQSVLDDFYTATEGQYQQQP

As for `Cc1nc(Nc2ncc(C(=O)Nc3c(C)cccc3Cl)s2)cc(N2CCC(OC3CCN(CCCCCCCC(=O)N4CCN(c5ccc6c(NCCN)nc(C7(c8ccc(Cl)cc8)CCCCC7)nc6c5)CC4)CC3)CC2)n1` [DDa-1], the LYN protein levels entry in assay [1] is “not”. Further, the “kinases with significant protein level reduction (LC/MS proteomics)” value in assay [2] is “CSK and LIMK2; also recorded: TEC and TNK2”.
Turning to `Cc1c(NC(=O)N2CC(O)(CC(C)(C)C)C2)cc(F)cc1-c1ncnc2[nH]c(-c3cnn(CC(=O)N4CCC5(CC4)CN(CCNC(=O)CCCC(=O)N4CCN(c6ccc7c(NCCN)nc(C8(c9ccc(Cl)cc9)CCCCC8)nc7c6)CC4)CCO5)c3)cc12` [DBt-10], the “relative potency change between CBt sensitive and resistant TMD8 cells” value in assay [3] is “did not show any relative potency differences”. Also, in assay [4], the “only other protein with significantly reduced abundance (proteomics)” value is “LIM domain kinase 1 (LIMK1)” and the “strongest reduced protein (proteomics)” value was “BTK”.
Regarding `COc1cc(-c2cn(C)c(=O)c3cnccc23)c(OC)cc1CN1CCC(OCCCCCC(=O)N2CCN(c3ccc4c(NCCN)nc(C5(c6ccc(Cl)cc6)CCCCC5)nc4c3)CC2)CC1` [DBr-1], the Kd is 0.02 µM in assay [5] (Kd1, apparent KD of first sigmoidal transition, in the presence of 0.2 µM BRD9-BD(130-250)); 0.005 µM in assay [5] (SPR KD [μM], + BRD9, with additional BRD9-BD(130-250)); 6.11 µM in assay [5] (read-out: Kd2, apparent KD of second sigmoidal transition, in the presence of 0.2 µM BRD9-BD(130-250)).
